Experimental data from patent US20250381168A1, “VLA4 INHIBITORS AND USES THEREOF” (Washington University, priority 2022, published 2025).
“Also recorded” adds a separate entry of the source. Where two headings read alike, the source gives them in different places.

What was measured:
[1] = test system: hematopoietic stem/progenitor cells (HSPCs); assay: HSPC mobilization into peripheral blood, colony forming unit (CFU) assay; settings: mice
Method: HSPC mobilization. […] For those that dissolve in straight saline, a 0.2 mL dose, diluted with saline from the stock solution to provide the target dose (in mg/kg), was injected s.c. to each test mouse.
When doing combination studies with the VLA4 inhibitor plus a CXCR4 inhibitor and/or a CXCL2 agonist, the other agents were dosed as follows:
The CXCR4 inhibitor AMD3100 (Mozobil®, Genzyme, Cambridge, MA, USA) suspension was prepared in PBS and administered s.c. at a dose of 5 mg/kg.
Recombinant human CXCL2 (Groβt; R & D systems) was reconstituted in sterile Ca^+2/Mg^+2-free phosphate buffered saline (PBS) and injected subcutaneously (s.c.) at a dose of 2.5 mg/kg.
Colony forming unit (CFU) assay. Peripheral blood (PB) was drawn from the facial vein without anaesthesia into K/EDTA anti-coagulated tubes (Sarstedt AG & Co, NOmbrecht, Germany) at various time points post dosing of the test compounds. Red blood cells were removed from aliquots of blood using hypotonic lysis (Ammonium-Chloride-Potassium, ACK buffer, 5-10 min at RT) and samples were mixed with 2 mL mouse methylcellulose complete media, supplemented with a cocktail of recombinant cytokines (HS0007; R & D Systems, Minneapolis, USA). Cultures were plated in duplicate in 35 mm dishes and placed in a humidified chamber with 5% CO2 at 37° C. After 7 d of culture, colonies containing at least 50 cells were counted using an inverted microscope in a blinded fashion.

VLA-4 (a4b1) = VLA-4 (a4b1) (Homo sapiens (Human), UniProt P05556+P13612); assay: sVCAM flow cytometry cell-based assay (inhibition of soluble VCAM-1 binding to G2 ALL cells);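 further: compounds at 0.1 to 1000 nM preincubated 30 min with G2 ALL cells, then VCAM/Fc added for 30 min, bound VCAM-1 detected by PE secondary antibody, percent binding cells by flow cytometry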
[2] = single s.c. injection, peripheral blood, 0.25 hr post dose (TABLE 6)
[3] = single s.c. injection, peripheral blood, 2 hr post dose (TABLE 6)
[4] = single s.c. injection, peripheral blood, 4 hr post dose (TABLE 6)
[5] = as listed in TABLE 6, read-out: sVCAM IC50
[6] = inhibition of sVCAM-1 binding to human G2 ALL cells (TABLE 3), read-out: SVCAM-1, IC50

Chain of VLA-4 (a4b1) (P13612 34-1032): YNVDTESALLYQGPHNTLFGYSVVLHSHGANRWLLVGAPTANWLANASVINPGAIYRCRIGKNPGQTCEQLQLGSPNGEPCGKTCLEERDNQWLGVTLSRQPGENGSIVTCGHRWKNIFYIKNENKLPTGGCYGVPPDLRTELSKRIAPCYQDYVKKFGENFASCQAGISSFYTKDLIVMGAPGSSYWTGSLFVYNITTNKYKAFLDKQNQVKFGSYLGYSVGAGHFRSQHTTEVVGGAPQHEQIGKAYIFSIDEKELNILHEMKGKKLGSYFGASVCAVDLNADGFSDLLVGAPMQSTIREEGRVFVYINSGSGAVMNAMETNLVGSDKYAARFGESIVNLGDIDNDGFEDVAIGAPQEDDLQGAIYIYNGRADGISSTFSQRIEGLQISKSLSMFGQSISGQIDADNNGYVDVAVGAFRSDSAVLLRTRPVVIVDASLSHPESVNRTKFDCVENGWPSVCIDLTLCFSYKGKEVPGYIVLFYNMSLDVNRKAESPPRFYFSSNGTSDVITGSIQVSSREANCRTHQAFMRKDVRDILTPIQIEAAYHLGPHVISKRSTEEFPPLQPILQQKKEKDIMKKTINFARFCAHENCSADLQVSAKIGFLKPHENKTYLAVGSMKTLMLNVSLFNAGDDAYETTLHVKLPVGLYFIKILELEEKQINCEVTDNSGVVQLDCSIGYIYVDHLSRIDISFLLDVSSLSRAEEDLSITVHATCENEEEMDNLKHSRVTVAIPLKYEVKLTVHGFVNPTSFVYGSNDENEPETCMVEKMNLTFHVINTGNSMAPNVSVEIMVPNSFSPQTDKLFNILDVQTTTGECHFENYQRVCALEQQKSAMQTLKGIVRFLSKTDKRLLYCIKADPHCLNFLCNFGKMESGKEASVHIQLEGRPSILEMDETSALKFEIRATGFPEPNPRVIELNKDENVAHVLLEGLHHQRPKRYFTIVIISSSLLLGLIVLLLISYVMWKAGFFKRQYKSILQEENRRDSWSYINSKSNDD
Chain of VLA-4 (a4b1) (P05556 21-798): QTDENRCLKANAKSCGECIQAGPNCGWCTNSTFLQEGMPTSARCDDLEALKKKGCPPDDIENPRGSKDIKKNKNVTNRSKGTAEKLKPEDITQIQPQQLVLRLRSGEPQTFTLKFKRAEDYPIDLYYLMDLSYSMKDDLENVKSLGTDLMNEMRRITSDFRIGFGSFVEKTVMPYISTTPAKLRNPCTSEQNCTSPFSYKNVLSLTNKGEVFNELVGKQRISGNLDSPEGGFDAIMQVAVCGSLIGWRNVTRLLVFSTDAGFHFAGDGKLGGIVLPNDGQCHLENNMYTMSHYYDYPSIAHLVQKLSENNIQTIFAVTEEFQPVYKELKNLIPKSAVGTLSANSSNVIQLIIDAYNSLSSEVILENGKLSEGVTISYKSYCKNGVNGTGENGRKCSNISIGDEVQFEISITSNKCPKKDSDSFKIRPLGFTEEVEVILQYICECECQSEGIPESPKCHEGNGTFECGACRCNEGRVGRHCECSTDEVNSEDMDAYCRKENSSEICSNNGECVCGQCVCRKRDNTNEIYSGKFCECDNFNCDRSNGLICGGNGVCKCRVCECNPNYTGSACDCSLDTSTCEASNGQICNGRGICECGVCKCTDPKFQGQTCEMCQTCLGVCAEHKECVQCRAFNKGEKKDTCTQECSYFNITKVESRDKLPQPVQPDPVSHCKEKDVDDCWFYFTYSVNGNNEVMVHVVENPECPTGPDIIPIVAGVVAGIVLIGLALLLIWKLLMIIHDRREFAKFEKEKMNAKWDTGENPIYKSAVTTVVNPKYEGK

Row | Compound | No. CFU (×10^3)/mL ± SD, 0.25 hr [1, 2] | No. CFU (×10^3)/mL ± SD, 2 hr [1, 3] | No. CFU (×10^3)/mL ± SD, 4 hr [1, 4] | IC50 (VLA-4 (a4b1); [5]) [nM] | IC50 (VLA-4 (a4b1); [6]) [nM] | HSPC mobilization, result in words ([1]; single dose) | also measured
1 | COc1cccc(OC)c1-c1ccc(C[C@H](NC(=O)[C@]2(C)CCCN2S(=O)(=O)c2cc(Cl)cc(Cl)c2)C(=O)O)cc1 [Example C5] | 2.78 ± 0.48 (×10^3)/mL | 1.38 ± 0.53 (×10^3)/mL | 0.31 ± 0.09 (×10^3)/mL | 3.59 | 3.59 |  | 
2 | CCOCc1cc(OC)c(-c2ccc(C[C@H](NC(=O)[C@@H]3CCCN3S(=O)(=O)c3cc(Cl)cc(Cl)c3)C(=O)O)cc2)c(OC)c1 [Example C6] | 2.58 ± 0.65 (×10^3)/mL | 2.12 ± 0.70 (×10^3)/mL | 0.46 ± 0.20 (×10^3)/mL | 0.445 | 0.445 |  | 
3 | COCCOCCOCCOCc1cc(OC)c(-c2ccc(C[C@H](NC(=O)[C@@H]3CCCN3S(=O)(=O)c3cc(Cl)cc(Cl)c3)C(=O)O)cc2)c(OC)c1 [Example C7] | 2.57 ± 0.62 (×10^3)/mL | 2.52 ± 0.37 (×10^3)/mL | 0.50 ± 0.18 (×10^3)/mL | 0.194 | 0.194 | returning to baseline by 4 hours and clearly at baseline by 6 hours | No. CFU (×10^3)/mL ± SD, 2 hr ([1]; single dose, peripheral blood, 2 hr post dose (TABLE 9)): 2.65 ± 1.39 (×10^3)/mL; No. CFU (×10^3)/mL ± SD, 4 hr ([1]; single dose, peripheral blood, 4 hr post dose (TABLE 9)): 0.44 ± 0.17 (×10^3)/mL; No. CFU (×10^3)/mL ± SD, 6 hr ([1]; single dose, peripheral blood, 6 hr post dose (TABLE 9)): 0.11 ± 0.08 (×10^3)/mL; IC50 (VLA-4 (a4b1); as listed in TABLE 9, read-out: sVCAM IC50): 0.194 nM
4 | COc1cc(CO)cc(OC)c1-c1ccc(C[C@H](NC(=O)[C@@H]2CCCN2S(=O)(=O)c2cc(Cl)cc(Cl)c2)C(=O)O)cc1 [Example C8] | 2.74 ± 0.69 (×10^3)/mL | 2.10 ± 0.85 (×10^3)/mL | 0.42 ± 0.15 (×10^3)/mL | 0.199 | 0.199 | have returned to baseline | No. CFU (×10^3)/mL ± SD, 0.5 hr ([1]; single dose, peripheral blood, 0.5 hr post dose (TABLE 7)): 0.85 ± 0.30 (×10^3)/mL; No. CFU (×10^3)/mL ± SD, 2 hr ([1]; single dose, peripheral blood, 2 hr post dose (TABLE 7)): 0.87 ± 0.30 (×10^3)/mL; No. CFU (×10^3)/mL ± SD, 4 hr ([1]; single dose, peripheral blood, 4 hr post dose (TABLE 7)): 0.27 ± 0.36 (×10^3)/mL; IC50 (VLA-4 (a4b1); as listed in TABLE 7, read-out: sVCAM IC50): 0.199 nM
5 | COCCOCCOCCOCCOCCOCCOCCOCCOCCOCCOCCOCCOCCOCCOCCOCCOCCOCCOCCOCCOCCOCCOCCOCCn1cc(COCc2cc(OC)c(-c3ccc(C[C@H](NC(=O)[C@@H]4CCCN4S(=O)(=O)c4cc(Cl)cc(Cl)c4)C(=O)O)cc3)c(OC)c2)nn1 [Example C9, (S)-3-(4′-(((1-(2,5,8,11,14,17,20,23,26,29,32,35,38,41,44,47,50,53,56,59,62,65,68,71-tetracosaoxatriheptacontan-73-yl)-1H-1,2,3-triazol-4-yl)methoxy)methyl)-2′,6′-dimethoxy-[1,1′-biphenyl]-4-yl)-2-((S)-1-((3,5-dichlorophenyl)sulfonyl)pyrrolidine-2-carboxamido)propanoic Acid] |  |  |  |  | 0.579 | returning to baseline by 4 hours; also recorded: inferior mobilization at 4 hours compared to Example 3 | No. CFU (×10^3)/mL ± SD, 0.25 hr ([1]; single dose, peripheral blood, 0.25 hr post dose (TABLE 8)): 3.72 ± 1.18 (×10^3)/mL; No. CFU (×10^3)/mL ± SD, 2 hr ([1]; single dose, peripheral blood, 2 hr post dose (TABLE 8)): 3.09 ± 1.06 (×10^3)/mL; No. CFU (×10^3)/mL ± SD, 4 hr ([1]; single dose, peripheral blood, 4 hr post dose (TABLE 8)): 0.57 ± 0.28 (×10^3)/mL; IC50 (VLA-4 (a4b1); as listed in TABLE 8, read-out: sVCAM IC50): 0.579 nM
6 | CCOCc1cc(OC)c(-c2ccc(C[C@H](NC(=O)c3c(F)cccc3F)C(=O)O)cc2)c(OC)c1 [Firategrast, firategrast] |  |  |  |  |  |  | No. CFU (×10^3)/mL ± SD, 1 hr ([1]; single dose, peripheral blood, 1 hr post dose (TABLE 20)): 0.34 ± 0.12 (×10^3)/mL; No. CFU (×10^3)/mL ± SD, 4 hr ([1]; single dose, peripheral blood, 4 hr post dose (TABLE 20)): 0.24 ± 0.14 (×10^3)/mL; No. CFU (×10^3)/mL ± SD, 8 hr ([1]; single dose, peripheral blood, 8 hr post dose (TABLE 20)): 0.24 ± 0.14 (×10^3)/mL
7 | c1cc(CN2CCCNCCNCCCNCC2)ccc1CN1CCCNCCNCCCNCC1 [Plerixafor, plerixafor] |  |  |  |  |  |  | No. CFU (x10^3)/mL ± SD, 4 hr ([1]; single dose alone or in combination with Plerixafor (5 mg/kg s.c.), peripheral blood, 4 hr (TABLE 15)): 1.25 ± 0.30 (x10^3)/mL; No. CFU (x10^3)/mL ± SD, 6 hr ([1]; single dose alone or in combination with Plerixafor (5 mg/kg s.c.), peripheral blood, 6 hr (TABLE 15)): 0.28 ± 0.12 (x10^3)/mL; No. CFU (x10^3)/mL ± SD, 24 hr ([1]; single dose alone or in combination with Plerixafor (5 mg/kg s.c.), peripheral blood, 24 hr (TABLE 15)): 0.22 ± 0.08 (x10^3)/mL
